From US5409933A, “Quinoline derivatives and processes for preparing the same” (priority 1993, dated 1995)
Counter-ions that a name gives are not always drawn. Like-named read-outs stand apart in the source and are kept apart here.

How the values were obtained:
Assay in all cases: In Vitro Anti-Bacterial Activity Test (MIC, agar dilution)
Assay type in all cases: cell-based
[1] = test system: Streptococcus pyogenes 308A; conditions: Muller-Hinton agar, 37° C., 18 hours, read-out: MIC
Method: (§1) The above in vitro antibacterial activity test was carried out in accordance with the agar culture medium dilution method (Hoechst 345) by using Muller-Hinton agar medium to determine the minimum inhibitory concentration (MIC).
(§2) The strains having 10^7 C.F.U./ml were inoculated on the culture medium, and the growth of the strains was observed after incubating them at 37° C. for 18 hours, in which ciprofloxacin was used as a control antibacterial agent. In this test, twenty typical strains were used.

Escherichia coli 1507E = conditions: Muller-Hinton agar, 37° C.
Method: as §1, §2

Escherichia coli DC0 = conditions: Muller-Hinton agar, 37° C., 18 hours, read-out: MIC
Method: as §1, §2

Salmonella typhimurium = conditions: Salmonella enterica
Method: as §1, §2

[2] = test system: Enterobacter cloacae 1321E
Method: as §1, §2

Klebsiella oxytoca 1082E = conditions: Klebsiella oxytoca 1082E; Muller-Hinton agar, 37° C., 18 hours; read-out: MIC
Method: as §1, §2

[3] = test system: Klebsiella aerogenes 1522E; conditions: Klebsiella aerogenes, 1522E, 18 h
Method: as §1, §2

[4] = test system: Staphylococcus aureus 503
Method: as §1, §2

[5] = test system: Streptococcus pyogenes 77A; conditions: Streptococcus pyogenes 77A; Muller-Hinton agar, 37° C., 18 hours; read-out: MIC
Method: as §1, §2

[6] = test system: Staphylococcus aureus SG511
Method: as §1, §2

[7] = test system: Pseudomonas aeruginosa 1771; conditions: Pseudomonas aeruginosa 1771; Muller-Hinton agar, 37° C., 18 hours; read-out: MIC
Method: as §1, §2

[8] = test system: Staphylococcus aureus 285; conditions: Staphylococcus aureus, 285, 18 h
Method: as §1, §2

[9] = test system: Pseudomonas aeruginosa 1592E; conditions: Muller-Hinton agar, 37° C., 18 hours, read-out: MIC
Method: as §1, §2

Escherichia coli 078 = test system: Escherichia coli 078
Method: as §1, §2

Escherichia coli DC2 = conditions: Escherichia coli, DC2, 18 h
Method: as §1, §2

[10] = test system: Pseudomonas aeruginosa 9027; conditions: Muller-Hinton agar, 37° C., 18 hours, read-out: MIC
Method: as §1, §2

Escherichia coli TEM = conditions: Escherichia coli, 18 h, Muller-Hinton agar, 37° C.
Method: as §1, §2

[11] = test system: Pseudomonas aeruginosa 1771M; conditions: Pseudomonas aeruginosa, 1771M, 18 h, Muller-Hinton agar, 37° C.
Method: as §1, §2

[12] = test system: Streptococcus faecium MD8b; conditions: Enterococcus faecium, Muller-Hinton agar, 37° C., 18 hours, read-out: MIC
Method: as §1, §2

Enterobacter cloacae P99 = conditions: Enterobacter cloacae, P99, 18 h
Method: as §1, §2

[13] = Enterobacter cloacae 1321E, Muller-Hinton agar, 37° C., 18 hours, read-out: MIC
[14] = Klebsiella aerogenes 1522E, Muller-Hinton agar, 37° C., 18 hours, read-out: MIC
[15] = Staphylococcus aureus 503, Muller-Hinton agar, 37° C., 18 hours, read-out: MIC
[16] = Staphylococcus aureus SG511, Muller-Hinton agar, 37° C., 18 hours, read-out: MIC
[17] = Staphylococcus aureus 285, Muller-Hinton agar, 37° C., 18 hours, read-out: MIC
[18] = Escherichia coli 078, Muller-Hinton agar, 37° C., 18 hours, read-out: MIC
[19] = Salmonella typhimurium, Muller-Hinton agar, 37° C., 18 hours, read-out: MIC

SMILES	MIC [1] [µg/mL]	MIC (Escherichia coli DC0) [µg/mL]	MIC [2, 13] [µg/mL]	MIC (Klebsiella oxytoca 1082E) [µg/mL]	MIC [3, 14] [µg/mL]	MIC [4, 15] [µg/mL]	MIC [5] [µg/mL]	MIC [6, 16] [µg/mL]	MIC [7] [µg/mL]	MIC [8, 17] [µg/mL]	MIC [9] [µg/mL]	MIC (Escherichia coli 078; [18]) [µg/mL]	MIC (Escherichia coli DC2) [µg/mL]	MIC [10] [µg/mL]	MIC (Escherichia coli TEM) [µg/mL]	MIC [11] [µg/mL]	MIC [12] [µg/mL]	MIC (Enterobacter cloacae P99) [µg/mL]	MIC (Escherichia coli 1507E; Escherichia coli, 1507E, 18 h) [µg/mL]	MIC (Salmonella typhimurium; [19]) [µg/mL]	further results
CCOC(=O)C(C(=O)OCC)C(=O)c1cn(C2CC2)c2cc(N3CCNCC3)c(F)cc2c1=O [Example 18, 1-cyclopropyl-6-fluoro-7-(piperazin-1-yl)-3-(2,2-diethoxycarbonylacetyl)-1,4-dihydro-4-oxoquinoline hydrochloride]	3.12	0.195	< 0.002	0.004	0.013	0.391	0.781	0.195	0.195	0.391	0.391	0.004	0.098	0.781	0.007	0.049	0.781	< 0.002	–	–	MIC (Escherichia coli 1507E; 18 hours, read-out: MIC): 0.004 µg/mL; MIC (Salmonella typhimurium; TYPHIMURIUM, 18 h): 0.007 µg/mL
CCOC(=O)C(C(=O)OCC)C(=O)c1cn(C2CC2)c2c(OC)c(N3CC[C@@H](NC)C3)c(F)cc2c1=O [Example 58, 1-cyclopropyl-6-fluoro-8-methoxy-7-(3-3R-methylaminopyrrolidin-1-yl)-3-(2,2-diethoxycarbonylacetyl)-1,4-dihydro-4-oxoquinoline hydrochloride]	1.56	1.56	0.098	0.049	0.195	0.195	1.56	0.195	1.56	0.195	1.56	–	0.195	1.56	0.098	0.781	1.56	0.098	0.391	0.195	MIC (Escherichia coli 078; Escherichia coli, 078, 18 h): 0.098 µg/mL
N[C@@H]1CCN(c2c(F)cc3c(=O)c(C(=O)C[N+](=O)[O-])cn(C4CC4)c3c2Cl)C1 [Example 12, 1-cyclopropyl-6-fluoro-8-chloro-7-(3-3R-aminopyrrolidin-1-yl)-3-(2-nitroacetyl)-1,4-dihydro-4-oxoquinoline hydrochloride]	0.391	0.098	< 0.002	< 0.002	–	–	0.195	–	0.195	–	0.391	< 0.002	0.049	0.391	0.004	0.049	0.098	0.004	–	< 0.002	MIC (Escherichia coli 1507E; 18 hours, read-out: MIC): 0.004 µg/mL; MIC [3]: 0.025 µg/mL; MIC ([4]; Staphylococcus aureus, 503, 18 h): 0.025 µg/mL; MIC ([6]; Staphylococcus aureus, SG511, 18 h): 0.025 µg/mL; MIC [8]: 0.025 µg/mL
CCOC(=O)CC(=O)c1cn(C2CC2)c2c(F)c(N3CCC(N)C3)c(F)cc2c1=O (stereo not shown) [Example 21, 1-cyclopropyl-6,8-difluoro-7-(3-aminopyrrolidin-1-yl)-3-(2-ethoxycarbonylacetyl)-1,4-dihydro-4-oxoquinoline hydrochloride]	0.781	0.098	< 0.002	0.004	0.025	0.049	0.391	0.049	0.195	0.049	0.391	0.004	0.049	0.391	0.013	0.098	0.781	0.007	0.013	0.013	–
CN[C@@H]1CCN(c2c(F)cc3c(=O)c(C(=O)C[N+](=O)[O-])cn(C4CC4)c3c2Cl)C1 [Example 61, 1-cyclopropyl-6-fluoro-8-chloro-7-(3-3R-methylaminopyrrolidin-1-yl)-3-(2-nitroacetyl)-1,4-dihydro-4-oxoquinoline hydrochloride]	0.391	0.049	–	0.004	0.013	0.025	0.098	0.013	0.195	0.025	0.195	< 0.002	0.013	0.195	0.007	0.098	0.098	0.007	0.007	0.004	MIC ([2]; Enterobacter cloacae, 1321E, 18 h): 0.007 µg/mL
